# According to US20230250077A1, “SULFONYLBENZAMIDE DERIVATIVE AND CONJUGATE THEREOF, PREPARATION METHOD THEREFOR AND USE THEREOF” (Jiangsu Hengrui Pharmaceuticals Co., Ltd., priority 2020, published 2023):
# Legend:
# BCL-2 = molecular target: T1, BCL-2 (Homo sapiens, UniProt P10415); experiment: Binding activity for BCL-2 (HTRF, biotin-labeled BIM); conditions: His-tagged BCL-2, biotin-labeled BIM
# T1 construct: purchased R&D systems 827-BC-050
# Description: In vitro BCL-2-binding activity was tested by the following method.
# (§1) Reagents used in this experiment: His-tagged BCL-2 protein (R&D systems, Cat #827-BC-050); biotin-labeled BIM protein (R&D, Cat #3526/1); binding buffer (cisbio, Cat #62DLBDDF); assay buffer (cisbio, Cat #62DB1FDG); MAb anti-6His-Eu cryptate (cisbio, Cat #61HI2KLA); and affinity streptomycin linked XL665 (cisbio, Cat #611SAXLA).
# The in vitro binding assay described below can determine the binding activity of test compounds for BCL-2.
# (§2) The test compounds were dissolved in dimethyl sulfoxide and diluted to gradient concentrations as required for the experiment, and the compounds at various concentrations formulated in dimethyl sulfoxide were subjected to a 100-fold dilution with a binding buffer. BCL-2 was diluted to the corresponding concentration with a binding buffer solution, and added to a white 384-well plate at 4 μL/well. Then the diluted test compound was added into the white 384-well plate at 2 μL/well. The plate was incubated at 25° C. for 1 h after the mixture was uniformly mixed. Biotin-labeled BIM protein was diluted to the corresponding concentration with a binding buffer, and added to a white 384-well plate at 4 μL/well. The plate was incubated at 25° C. for 2 h after the mixture was uniformly mixed. The MAb anti-6His-Eu cryptate and the affinity streptomycin linked XL665 were each diluted to the corresponding concentration with an assay buffer, and added to a white 384-well plate at 5 μL/well. The plate was incubated at 25° C. for 2-4 h after the mixture was uniformly mixed. The signal values were read with the HTRF program in a microplate reader (BMG Labtech, model: PHERAstar FS).
# BCL-xL = molecular target: T2, BCL-xL (Homo sapiens, UniProt Q07817); experiment: Binding activity for BCL-xL (HTRF, biotin-labeled BIM); conditions: His-tagged BCL-xL
# T2 construct: purchased R&D 894-BX-050
# T2 sequence (Q07817 whole entry): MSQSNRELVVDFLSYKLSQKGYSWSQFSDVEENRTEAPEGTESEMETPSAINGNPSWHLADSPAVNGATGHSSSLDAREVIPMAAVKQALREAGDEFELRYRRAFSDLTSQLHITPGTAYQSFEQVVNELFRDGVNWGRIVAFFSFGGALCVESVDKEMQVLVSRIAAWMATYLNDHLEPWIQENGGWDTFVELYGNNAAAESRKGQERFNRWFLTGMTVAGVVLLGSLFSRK
# Description: In vitro BCL-xL-binding activity was tested by the following method.
# as §1, with “BCL-xL” for “BCL-2”, “(R&D,” for “(R&D systems,”, “#894-BX-050);” for “#827-BC-050);”
# The in vitro binding assay described below can determine the binding activity of test compounds for BCL-xL.
# as §2, with “BCL-xL” for “BCL-2”, “buffer,” for “buffer solution,”, “to” for “into”
# NCI-H146 cells = experiment: Inhibition of proliferation of NCI-H146 cells (CellTiter-Glo); assay type: cell-based; conditions: Homo sapiens, 72 h, 3 days, read-out: Inhibitory activity IC50 (nM) for the proliferation of NCI-H146 cells
# Description: (§3) In vitro inhibitory activity for the proliferation of RS4;11 cells and NCI-H146 cells was tested by the following method.
# (§4) Reagents used in this experiment: RPMI-1640 medium (HyCLone, Cat #SH30243018); fetal bovine serum (Gibco, Cat #10099-141); pancreatin (Gibco, Cat #25200-072); Cell Titer-Glo (Promega, Cat #G7571).
# (§5) Materials used: RS4;11 cells (Nanjing Kebai Biotechnology Co., Ltd, Cat #CBP60641); and NCI-H146 cells (ATCC, Cat #HTB-173).
# (§6) The in vitro cell proliferation assay described below can determine the inhibitory activity of the test compounds for the proliferation of RS4;11 cells and NCI-H146 cells.
# (§7) RS4;11 cells (or NCI-H146 cells) were cultured in an RPMI-1640 culture medium containing 10% FBS, and were passaged for 2-3 times a week in a passage ratio of 1:3 or 1:5. During passage, the cells were transferred to a centrifuge tube, and centrifuged at 1200 rpm for 3 min. The supernatant was discarded, and fresh culture medium was added to resuspend the cells. 90 μL of cell suspension was added to a 96-well cell culture plate, wherein RS4;11 cells and NCI-H146 cells were added at a density of 2.22×10^5 cells/mL. Only 100 μL of complete medium (RPMI-1640 medium containing 10% FBS) was added to the periphery of the 96-well plate. The plate was incubated in an incubator for 24 h (37° C., 5% CO2).
# (§8) The test sample was diluted to a proper concentration gradient with dimethyl sulfoxide as required for the experiment. 5 μL of the solution of the test compound prepared in a gradient concentration was added to 95 μL of fresh culture medium and mixed uniformly, and then 10 μL of the culture medium containing the above compound was added to a cell culture plate. The cell culture plate was incubated in an incubator for 3 days (37° C., 5% CO2). 50 μL of CellTiter-Glo reagent was added into each well of the 96-well cell culture plate. The plate was let stand for 5-10 min away from the light at room temperature. The chemiluminescence signals were read by a microplate reader (BMG Labtech, model: PHERAstar FS) and the data were processed by GraphPad software.
# RS4;11 cells = experiment: Inhibition of proliferation of RS4;11 cells (CellTiter-Glo); assay type: cell-based; conditions: Homo sapiens, 72 h, 3 days, read-out: Inhibitory activity IC50 (nM) for the proliferation of RS4;11 cells
# Description: as §3, §4, §5, §6, §7, §8
# T1 sequence (P10415 whole entry): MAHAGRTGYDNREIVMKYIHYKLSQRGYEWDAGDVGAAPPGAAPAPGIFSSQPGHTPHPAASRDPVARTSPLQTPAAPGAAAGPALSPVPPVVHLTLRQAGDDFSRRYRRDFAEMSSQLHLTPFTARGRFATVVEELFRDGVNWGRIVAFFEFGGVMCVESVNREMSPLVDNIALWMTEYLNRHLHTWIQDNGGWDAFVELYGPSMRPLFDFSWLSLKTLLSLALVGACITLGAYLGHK
SMILES,Ki (BCL-2),Ki (BCL-xL),IC50 (NCI-H146 cells),IC50 (RS4;11 cells)
"O=C(NS(=O)(=O)c1ccc(N[C@@H](CSc2ccccc2)C[C@H]2CCCN2)c(S(=O)(=O)C(F)(F)F)c1)c1ccc(N2CCC([C@@H](O)c3ccccc3-c3ccc(Cl)cc3)CC2)cc1 [Example 2-1, 4-(4-((R)-(4′-chloro-[1,1′-biphenyl]-2-yl)(hydroxy)methyl)piperidin-1-yl)-N-((4-(((R)-1-(phenylthio)-3-((R)-pyrrolidin-2-yl)propan-2-yl)amino)-3-((trifluoromethyl)sulfonyl)phenyl)sulfonyl)benzamide]",0.07 nM,0.09 nM,36 nM,23 nM
"O=C(NS(=O)(=O)c1ccc(N[C@@H](CSc2ccccc2)C[C@H]2CCCN2CCO)c(S(=O)(=O)C(F)(F)F)c1)c1ccc(N2CCC([C@@H](O)c3ccccc3-c3ccc(Cl)cc3)CC2)cc1 [Example 2-2, 4-(4-((R)-(4′-chloro-[1,1′-biphenyl]-2-yl)(hydroxy)methyl)piperidin-1-yl)-N-((4-(((R)-1-((R)-1-(2-hydroxyethyl)pyrrolidin-2-yl)-3-(phenylthio)propan-2-yl)amino)-3-((trifluoromethyl)sulfonyl)phenyl)sulfonyl)benzamide]",0.07 nM,0.24 nM,33 nM,7 nM
"CO[C@@H](c1ccccc1-c1ccc(Cl)cc1)C1CCN(c2ccc(C(=O)NS(=O)(=O)c3ccc(N[C@@H](CSc4ccccc4)C[C@H]4CCCN4)c(S(=O)(=O)C(F)(F)F)c3)cc2)CC1 [Example 2-3, 4-(4-((R)-(4′-chloro-[1,1′-biphenyl]-2-yl)(methoxy)methyl)piperidin-1-yl)-N-((4-(((R)-1-(phenylthio)-3-((R)-pyrrolidin-2-yl)propan-2-yl)amino)-3-((trifluoromethyl)sulfonyl)phenyl)sulfonyl)benzamide]",0.1 nM,0.17 nM,74 nM,58 nM
"CO[C@@H](c1ccccc1-c1ccc(Cl)cc1)C1CCN(c2ccc(C(=O)NS(=O)(=O)c3ccc(N[C@@H](CSc4ccccc4)C[C@H]4CCCN4CCO)c(S(=O)(=O)C(F)(F)F)c3)cc2)CC1 [Example 2-4, 4-(4-((R)-(4′-chloro-[1,1′-biphenyl]-2-yl)(methoxy)methyl)piperidin-1-yl)-N-((4-(((R)-1-((R)-1-(2-hydroxyethyl)pyrrolidin-2-yl)-3-(phenylthio)propan-2-yl)amino)-3-((trifluoromethyl)sulfonyl)phenyl)sulfonyl)benzamide]",0.13 nM,0.32 nM,94 nM,34 nM
"O=C(NS(=O)(=O)c1ccc(N[C@@H](CSc2ccccc2)C[C@H]2CCCN2CCCO)c(S(=O)(=O)C(F)(F)F)c1)c1ccc(N2CCC([C@@H](O)c3ccccc3-c3ccc(Cl)cc3)CC2)cc1 [Example 2-5, 4-(4-((R)-(4′-chloro-[1,1′-biphenyl]-2-yl)(hydroxy)methyl)piperidin-1-yl)-N-((4-(((R)-1-((R)-1-(3-hydroxypropyl)pyrrolidin-2-yl)-3-(phenylthio)propan-2-yl)amino)-3-((trifluoromethyl)sulfonyl)phenyl)sulfonyl)benzamide]",0.13 nM,0.45 nM,55 nM,9 nM
"CC(Sc1ccccc1)[C@@H](CCN(C)CCO)Nc1ccc(S(=O)(=O)NC(=O)c2ccc(N3CCC([C@@H](O)c4ccccc4-c4ccc(C(F)(F)F)cc4)CC3)cc2)cc1S(=O)(=O)C(F)(F)F (stereo partly drawn) [Example 2-7, 4-(4-((R)-hydroxy(4′-(trifluoromethyl)-[1,1′-biphenyl]-2-yl)methyl)piperidin-1-yl)-N-((4-(((3R)-1-((2-hydroxyethyl)(methyl)amino)-4-(phenylthio)pentan-3-yl)amino)-3-((trifluoromethyl)sulfonyl)phenyl)sulfonyl)benzamide]",0.34 nM,–,–,–
"O=C(NS(=O)(=O)c1ccc(N[C@@H](CSc2ccccc2)C[C@@H]2CCCN2)c(S(=O)(=O)C(F)(F)F)c1)c1ccc(N2CCC([C@@H](O)c3ccccc3-c3ccc(Cl)cc3)CC2)cc1 [Example 2-8, 4-(4-((R)-(4′-chloro-[1,1′-biphenyl]-2-yl)(hydroxy)methyl)piperidin-1-yl)-N-((4-(((R)-1-(phenylthio)-3-((S)-pyrrolidin-2-yl)propan-2-yl)amino)-3-((trifluoromethyl)sulfonyl)phenyl)sulfonyl)benzamide]",0.11 nM,0.3 nM,46 nM,18 nM
"O=C(NS(=O)(=O)c1ccc(N[C@@H](CSc2ccccc2)C[C@@H]2CCCN2CCCO)c(S(=O)(=O)C(F)(F)F)c1)c1ccc(N2CCC([C@@H](O)c3ccccc3-c3ccc(Cl)cc3)CC2)cc1 [Example 2-11, 4-(4-((R)-(4′-chloro-[1,1′-biphenyl]-2-yl)(hydroxy)methyl)piperidin-1-yl)-N-((4-(((R)-1-((S)-1-(3-hydroxypropyl)pyrrolidin-2-yl)-3-(phenylthio)propan-2-yl)amino)-3-((trifluoromethyl)sulfonyl)phenyl)sulfonyl)benzamide]",0.04 nM,0.1 nM,16 nM,5 nM
"O=C(NS(=O)(=O)c1ccc(N[C@@H](CSc2ccccc2)C[C@@H]2CCCN2)c(S(=O)(=O)C(F)(F)F)c1)c1ccc(N2CCC([C@@H](O)c3ccccc3-c3ccc(C(F)(F)F)cc3)CC2)cc1 [Example 2-12, 4-(4-((R)-hydroxy(4′-(trifluoromethyl)-[1,1′-biphenyl]-2-yl)methyl)piperidin-1-yl)-N-((4-(((R)-1-(phenylthio)-3-((S)-pyrrolidin-2-yl)propan-2-yl)amino)-3-((trifluoromethyl)sulfonyl)phenyl)sulfonyl)benzamide]",0.04 nM,0.15 nM,–,–
